Reference: patent EP1247803A2, “Indolinone compounds suitable for modulation of protein kinases” (Sugen, Inc., priority 1996, dated 1998)

Tests used:
MET = MET biochemical kinase assay; set-up: species or system human; concentration or dose not given beside the values
How it was run: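 MET from cell lysates captured on ELISA plates via rabbit anti-MET cytoplasmic-domain antibody; compounds added and kinase reaction run in ATP and divalent-metal buffer. Receptor phosphotyrosine detected with HRP-conjugated anti-phosphotyrosine antibody and TMB colorimetry.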

FLK-1 receptor = target: T1, FLK-1 receptor (Mus musculus, UniProt P35918); experiment: FLK-1 ELISA (kinase activity of the FLK-1 receptor in FLK-1/NIH3T3 cells, VEGF stimulated); format: cell-based
T1 construct: expressed in transfected cells; host or cells: NIH3T3 C7#3
T1 sequence (P35918 20-1345): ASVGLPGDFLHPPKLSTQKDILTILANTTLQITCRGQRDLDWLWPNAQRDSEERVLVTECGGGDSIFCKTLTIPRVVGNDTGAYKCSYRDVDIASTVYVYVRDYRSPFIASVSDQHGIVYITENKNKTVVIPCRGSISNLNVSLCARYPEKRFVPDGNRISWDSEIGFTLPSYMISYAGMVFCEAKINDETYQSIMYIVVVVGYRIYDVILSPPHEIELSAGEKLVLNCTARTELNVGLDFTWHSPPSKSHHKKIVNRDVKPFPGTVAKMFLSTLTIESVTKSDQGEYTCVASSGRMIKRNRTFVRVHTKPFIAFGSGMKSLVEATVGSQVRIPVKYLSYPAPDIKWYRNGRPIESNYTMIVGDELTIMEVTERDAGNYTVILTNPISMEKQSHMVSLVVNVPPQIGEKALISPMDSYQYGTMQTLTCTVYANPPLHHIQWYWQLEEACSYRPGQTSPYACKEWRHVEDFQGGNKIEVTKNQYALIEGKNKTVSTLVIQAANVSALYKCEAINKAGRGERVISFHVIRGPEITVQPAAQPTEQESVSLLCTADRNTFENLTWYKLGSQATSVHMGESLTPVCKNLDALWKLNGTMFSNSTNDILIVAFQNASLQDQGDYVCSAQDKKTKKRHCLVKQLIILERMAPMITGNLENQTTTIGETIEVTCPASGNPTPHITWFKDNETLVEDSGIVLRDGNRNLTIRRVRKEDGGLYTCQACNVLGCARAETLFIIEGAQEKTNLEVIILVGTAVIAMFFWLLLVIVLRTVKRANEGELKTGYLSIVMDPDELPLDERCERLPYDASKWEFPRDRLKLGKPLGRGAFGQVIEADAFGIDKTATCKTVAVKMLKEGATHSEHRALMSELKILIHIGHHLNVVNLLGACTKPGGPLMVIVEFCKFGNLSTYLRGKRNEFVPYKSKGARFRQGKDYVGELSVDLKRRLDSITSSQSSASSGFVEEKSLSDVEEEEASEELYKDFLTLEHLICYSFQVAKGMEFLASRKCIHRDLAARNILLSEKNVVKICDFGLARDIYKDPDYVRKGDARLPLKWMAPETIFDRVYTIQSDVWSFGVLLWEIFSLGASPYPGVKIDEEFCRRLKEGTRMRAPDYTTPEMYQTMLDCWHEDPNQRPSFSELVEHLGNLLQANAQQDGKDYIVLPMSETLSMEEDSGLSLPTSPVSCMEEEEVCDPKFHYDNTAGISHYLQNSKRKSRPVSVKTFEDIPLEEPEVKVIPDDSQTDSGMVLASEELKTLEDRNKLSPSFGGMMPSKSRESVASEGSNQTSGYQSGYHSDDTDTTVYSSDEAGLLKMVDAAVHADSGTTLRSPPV
How it was run: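 NIH3T3 C7#3 cells expressing FLK-1 were seeded at 25.000 cells/well, serum-starved overnight in 0.1% FBS, then treated with compound for two hours at 37°C (final DMSO 0.5%) before VEGF stimulation. Receptor was captured on anti-rabbit IgG-coated ELISA plates bearing affinity-purified anti-FLK-1 antiserum.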

Compound | Met Kinase % Inhibition (MET) | Fik Kinase %Inhibition (FLK-1 receptor)
Cc1ccc(C=C2C(=O)Nc3ccc(I)cc32)s1 [10717/B07] | 90.0% | -18.3%
O=C1Nc2ccc(I)cc2C1=Cc1ccc(Br)cc1 [10717/B08] | 88.8% | -0.9%
O=C1Nc2ccc(I)cc2C1=Cc1ccc[nH]1 [10717/B09] | 88.8% | -40.7%
COc1cccc(O)c1C=C1C(=O)Nc2ccc(I)cc21 [10717/B10] | 56.1% | -2.3%
Cc1[nH]c(C=C2C(=O)Nc3ccc(I)cc32)c(Br)c1Br [10717/B11] | 91.0% | 11.4%
CCOc1ccccc1C=C1C(=O)Nc2ccc(Br)c(C)c21 [10717/C02] | 29.7% | 4.1%
Cc1c(Br)ccc2c1C(=Cc1cccs1)C(=O)N2 [10717/C03] | 25.3% | -7.7%
Cc1c(Br)ccc2c1C(=Cc1cccc([N+](=O)[O-])c1)C(=O)N2 [10719/C10] | 7.9% | 11.8%
Cc1c(Br)ccc2c1C(=Cc1ccc(F)cc1C(F)(F)F)C(=O)N2 [10719/C11] | -5.1% | 9.9%
CCOc1ccc(C=C2C(=O)Nc3ccc(S(=O)(=O)NC)cc32)cc1OC [10719/D02] | 27.5% | 9.7%
CNS(=O)(=O)c1ccc2c(c1)C(=Cc1ccc(O)c(O)c1)C(=O)N2 [10719/D03] | 93.2% | 4.8%
CNS(=O)(=O)c1ccc2c(c1)C(=Cc1ccc(OC)cc1OC)C(=O)N2 [10719/D04] | 28.9% | 27.8%
CCc1c(C)[nH]c(C=C2C(=O)Nc3ccc(S(=O)(=O)NC)cc32)c1C [10719/D05] | 71.8% | 16.3%
CNS(=O)(=O)c1ccc2c(c1)C(=Cc1c(OC)cc(OC)cc1OC)C(=O)N2 [10719/D06] | 11.2% | 25.8%
CNS(=O)(=O)c1ccc2c(c1)C(=Cc1ccc(O)cc1)C(=O)N2 [10719/D07] | 41.5% | -123.5%
CNS(=O)(=O)c1ccc2c(c1)C(=Cc1ccc(N(C)C)cc1)C(=O)N2 [10719/D08] | 45.2% | 8.2%
CNS(=O)(=O)c1ccc2c(c1)C(=Cc1ccc(F)cc1Cl)C(=O)N2 [10719/D09] | 13.0% | 7.8%
CNS(=O)(=O)c1ccc2c(c1)C(=Cc1cccc([N+](=O)[O-])c1)C(=O)N2 [10719/D10] | 22.3% | 8.3%
CCOc1ccc(C=C2C(=O)Nc3ccc(S(=O)(=O)Nc4ccc(C(F)(F)F)cc4)cc32)cc1OC [10719/E02] | 35.7% | 26.1%
O=C1Nc2ccc(S(=O)(=O)Nc3ccc(C(F)(F)F)cc3)cc2C1=Cc1ccc(O)c(O)c1 [10719/E03] | 87.2% | 17.1%

Compound | Met Kinase % Inhibition (MET) | Fik Kinase %Inhibition (FLK-1 receptor)
COc1ccc(C=C2C(=O)Nc3ccc(S(=O)(=O)Nc4ccc(C(F)(F)F)cc4)cc32)c(OC)c1 [10719/E04] | 3.1% | 31.2%
CCc1c(C)[nH]c(C=C2C(=O)Nc3ccc(S(=O)(=O)Nc4ccc(C(F)(F)F)cc4)cc32)c1C [10719/E05] | 39.0% | 21.5%
COc1cc(OC)c(C=C2C(=O)Nc3ccc(S(=O)(=O)Nc4ccc(C(F)(F)F)cc4)cc32)c(OC)c1 [10719/E06] | -4.5% | 17.1%
O=C1Nc2ccc(S(=O)(=O)Nc3ccc(C(F)(F)F)cc3)cc2C1=Cc1ccc(O)cc1 [10719/E07] | 55.5% | 26.7%
CN(C)c1ccc(C=C2C(=O)Nc3ccc(S(=O)(=O)Nc4ccc(C(F)(F)F)cc4)cc32)cc1 [10719/E08] | 80.0% | 21.8%
O=C1Nc2ccc(S(=O)(=O)Nc3ccc(C(F)(F)F)cc3)cc2C1=Cc1ccc(F)cc1Cl [10719/E09] | 36.1% | 13.5%
O=C1Nc2ccc(S(=O)(=O)Nc3ccc(C(F)(F)F)cc3)cc2C1=Cc1cccc([N+](=O)[O-])c1 [10719/E10] | 40.2% | 17.6%
O=C1Nc2ccc(S(=O)(=O)Nc3ccc(C(F)(F)F)cc3)cc2C1=Cc1ccc(F)cc1C(F)(F)F [10719/E11] | 28.5% | 26.3%
CCOc1ccc(C=C2C(=O)Nc3ccc(S(=O)(=O)N4CCOCC4)cc32)cc1OC [10719/F02] | 28.1% | 28.6%
O=C1Nc2ccc(S(=O)(=O)N3CCOCC3)cc2C1=Cc1ccc(O)c(O)c1 [10719/F03] | 89.5% | 11.2%
COc1ccc(C=C2C(=O)Nc3ccc(S(=O)(=O)N4CCOCC4)cc32)c(OC)c1 [10719/F04] | 3.3% | 26.6%
CCc1c(C)[nH]c(C=C2C(=O)Nc3ccc(S(=O)(=O)N4CCOCC4)cc32)c1C [10719/F05] | 63.1% | 20.7%
COc1cc(OC)c(C=C2C(=O)Nc3ccc(S(=O)(=O)N4CCOCC4)cc32)c(OC)c1 [10719/F06] | -22.0% | 13.5%
O=C1Nc2ccc(S(=O)(=O)N3CCOCC3)cc2C1=Cc1ccc(O)cc1 [10719/F07] | 36.7% | 18.7%
CN(C)c1ccc(C=C2C(=O)Nc3ccc(S(=O)(=O)N4CCOCC4)cc32)cc1 [10719/F08] | 75.7% | 15.1%
O=C1Nc2ccc(S(=O)(=O)N3CCOCC3)cc2C1=Cc1ccc(F)cc1Cl [10719/F09] | 19.2% | -6.5%
O=C1Nc2ccc(S(=O)(=O)N3CCOCC3)cc2C1=Cc1cccc([N+](=O)[O-])c1 [10719/F10] | 30.8% | 10.4%
O=C1Nc2ccc(S(=O)(=O)N3CCOCC3)cc2C1=Cc1ccc(F)cc1C(F)(F)F [10719/F11] | 8.7% | 11.6%
CCOc1ccc(C=C2C(=O)Nc3ccc(CCCl)cc32)cc1OC [10719/G02] | -2.4% | 27.3%
O=C1Nc2ccc(CCCl)cc2C1=Cc1ccc(O)c(O)c1 [10719/G03] | 87.6% | -25.8%

Compound | Met Kinase % Inhibition (MET) | Fik Kinase %Inhibition (FLK-1 receptor)
COc1ccc(C=C2C(=O)Nc3ccc(CCCl)cc32)c(OC)c1 [10719/G04] | -8.2% | 11.5%
CCc1c(C)[nH]c(C=C2C(=O)Nc3ccc(CCCl)cc32)c1C [10719/G05] | 15.9% | 18.0%
COc1cc(OC)c(C=C2C(=O)Nc3ccc(CCCl)cc32)c(OC)c1 [10719/G06] | -18.1% | 23.2%
O=C1Nc2ccc(CCCl)cc2C1=Cc1ccc(O)cc1 [10719/G07] | 24.0% | 20.1%
CN(C)c1ccc(C=C2C(=O)Nc3ccc(CCCl)cc32)cc1 [10719/G08] | 39.4% | 3.2%
O=C1Nc2ccc(CCCl)cc2C1=Cc1ccc(F)cc1Cl [10719/G09] | 1.3% | 18.1%
O=C1Nc2ccc(CCCl)cc2C1=Cc1cccc([N+](=O)[O-])c1 [10719/G10] | 35.5% | 9.7%
O=C1Nc2ccc(CCCl)cc2C1=Cc1ccc(F)cc1C(F)(F)F [10719/G11] | 24.0% | 6.9%
O=C1Nc2c(Br)cc(Br)cc2C1=Cc1c(F)cc(F)cc1F [10720/A02] | 45.2% | 4.7%
COc1cc(O)ccc1C=C1C(=O)Nc2c(Br)cc(Br)cc21 [10720/A03] | 58.2% | 17.7%
COc1ccc(C=C2C(=O)Nc3c(Br)cc(Br)cc32)cc1OC [10720/A04] | 62.3% | 12.3%
O=C1Nc2c(Br)cc(Br)cc2C1=Cc1ccccc1O [10720/A05] | 43.4% | 8.0%
O=C1Nc2c(Br)cc(Br)cc2C1=Cc1ccccc1 [10720/A06] | 63.6% | 5.6%
CSc1ccc(C=C2C(=O)Nc3c(Br)cc(Br)cc32)s1 [10720/A07] | 57.2% | 6.6%
Cc1cc(O)cc(O)c1C=C1C(=O)Nc2c(Br)cc(Br)cc21 [10720/A08] | 77.9% | -2.2%
CCOc1cc(C=C2C(=O)Nc3c(Br)cc(Br)cc32)ccc1O [10720/A09] | 75.4% | 8.1%
COc1ccc(O)c(C=C2C(=O)Nc3c(Br)cc(Br)cc32)c1 [10720/A10] | 68.4% | -5.2%
O=C1Nc2c(Br)cc(Br)cc2C1=Cc1ncc[nH]1 [10720/A11] | 58.7% | -0.6%
O=C1Nc2ccc(I)cc2C1=Cc1c(F)cc(F)cc1F [10720/B02] | 38.8% | 6.5%
COc1cc(O)ccc1C=C1C(=O)Nc2ccc(I)cc21 [10720/B03] | 53.3% | 6.4%
